US11191767B2, “Pharmaceutical composition for stimulating stem cell division and suppressing bacterial virulence” (priority 2017, dated 2021)
Where two headings read alike, the source gives them in different places.

Assays:
P. aeruginosa IMI-2016 = assay: MIC of antibiotics by serial dilution with or without FCCD; type: cell-based
Description: The study is carried out on P. aeruginosa strains given in the previous examples by in vitro serial dilution method using FCCD. Evaluate the decrease in resistance of Pseudomonas aeruginosa strains to amikacin and polymyxin. Prepare two rows of plates with Müller-Hinton nutrient medium: the first row contains various concentrations of the studied antibiotic (amikacin and polymyxin)—31, 62, 125, 250, 500 μg/ml of medium (double dilution). At the same time, prepare the same row of plates, but add FCCD additionally into the medium at a concentration of (0.0001-0.001) %. Inoculate 0.05 ml (drop) of each test strain on the plates from a bacterial suspension containing 10^8 […] according to the optic turbidity standard of 10 units. Müller-Hinton medium without antibiotic and Müller-Hinton medium containing 0.0001% of FCCD without antibiotic are used as controls. Inoculations are incubated at 37° C. for 48 hours. The results are considered by the value of MIC (minimum inhibitory concentration) with the obligatory growth of bacteria on control plates (see table 12).

A. baumannii IMI-2016 = assay: as above; type: cell-based
K. pneumoniae IMI-2016 = assay: as above; type: cell-based
P. Aeruginosa strains = assay: Antibiotic disc diffusion on Müller-Hinton agar with or without FCCD; type: cell-based, Pseudomonas aeruginosa; settings: for sensitivity of bacteria to antibiotic disc (in words): discs added with additional passages, FCCD medium
Description: The studies are carried out in vitro by diffusion method on P. Aeruginosa strains indicated in previous experiments. Two rows of plates containing Müller-Hinton agar were prepared in parallel, with a 0.01-0.005% FCCD solution added to the second-row plates. After that, bacteria of the studied strains from a suspension containing 10^8 […] are inoculated on the surface of the agar. To do this, prepare a bacterial suspension corresponding to a concentration of 10^9 […] according to the optic turbidity standard of 10 units diluted with physiological salt solution 10 times (up to 10^8 μl/m1). […] Inoculations on plates with FCCD-free medium are used as controls, as well as media on which discs are not applied. Inoculations are incubated for 48 hours at 37° C. in one passage, then re-inoculation is carried out under similar conditions for the following passages. A total of 4 passages were carried out with controls. The results are taken into account by the diameter of the bacteria inhibition zones. On FCCD-free medium, there are no inhibition zones (an indicator of antibiotic resistance of bacteria), whereas on a medium containing 0.005-0.01% FCCD, a zone of bacterial growth inhibition from 25 to 40 mm in diameter forms around discs (appearance of sensitivity to antibiotic).
Growth inhibition zones were not observed for antibiotics Pseudomonas aeruginosa has genetically determined (initial) antibiotic resistance.

[1] = Pseudomonas aeruginosa, IMI2016, Control (without FCCD), read-out: MIC
[2] = Pseudomonas aeruginosa, IMI2016, with FCCD 0.001 % (first FCCD line), read-out: MIC
[3] = Pseudomonas aeruginosa, IMI2016, with FCCD 0.001 % (second FCCD line), read-out: MIC
[4] = Acinetobacter baumannii, IMI2016, Control (without FCCD), read-out: MIC
[5] = Acinetobacter baumannii, IMI2016, with FCCD 0.001 % (first FCCD line), read-out: MIC
[6] = Acinetobacter baumannii, IMI2016, with FCCD 0.001 % (second FCCD line), read-out: MIC
[7] = Klebsiella pneumoniae, IMI2016, Control (without FCCD), read-out: MIC
[8] = Klebsiella pneumoniae, IMI2016, with FCCD 0,001 % (first FCCD line), read-out: MIC
[9] = Klebsiella pneumoniae, IMI2016, with FCCD 0,001 % (second FCCD line), read-out: MIC
[10] = with FCCD 0.001 % (first FCCD line)
[11] = with FCCD 0.001 % (second FCCD line)
[12] = with FCCD 0,001 % (first FCCD line)
[13] = with FCCD 0,001 % (second FCCD line)

Row | Compound | MIC (P. aeruginosa IMI-2016; [1]) [µg/mL] | MIC (P. aeruginosa IMI-2016; [2]) [µg/mL] | MIC (P. aeruginosa IMI-2016; [3]) [µg/mL] | MIC (A. baumannii IMI-2016; [4]) [µg/mL] | MIC (A. baumannii IMI-2016; [5]) [µg/mL] | MIC (A. baumannii IMI-2016; [6]) [µg/mL] | MIC (K. pneumoniae IMI-2016; [7]) [µg/mL] | MIC (K. pneumoniae IMI-2016; [8]) [µg/mL] | MIC (K. pneumoniae IMI-2016; [9]) [µg/mL] | other results
1 | CO/N=C(\C(=O)N[C@@H]1C(=O)N2C(C(=O)O)=C(CSc3nc(=O)c(=O)[nH]n3C)CS[C@H]12)c1csc(N)n1 [Ceftriaxone] | > 500 | 250 | 500 | > 500 | 250 | 125 | > 500 | 125 | 250 | 
2 | C[C@@H](O)[C@H]1C(=O)N2C(C(=O)O)=C(SCCN=CN)C[C@H]12 [Imipinem] |  |  |  |  |  |  |  |  |  | MIC (P. aeruginosa IMI-2016; Control (without FCCD)): >500 µg/mL; MIC (P. aeruginosa IMI-2016; [10]): 250 µg/mL; MIC (P. aeruginosa IMI-2016; [11]): 125 µg/mL; MIC (A. baumannii IMI-2016; Control (without FCCD)): >500 µg/mL; MIC (A. baumannii IMI-2016; [10]): 250 µg/mL; MIC (A. baumannii IMI-2016; [11]): 31 µg/mL; MIC (K. pneumoniae IMI-2016; Control (without FCCD)): >500 µg/mL; MIC (K. pneumoniae IMI-2016; [12]): 250 µg/mL; MIC (K. pneumoniae IMI-2016; [13]): 125 µg/mL
3 | NCC[C@H](O)C(=O)N[C@@H]1C[C@H](N)[C@@H](O[C@H]2O[C@H](CN)[C@@H](O)[C@H](O)[C@H]2O)[C@H](O)[C@H]1O[C@H]1O[C@H](CO)[C@@H](O)[C@H](N)[C@H]1O [Amikacin] | > 500 | 15 | 125 | > 500 | 15 | 125 | > 500 | 31 | 62 | increase of sensitivity to antibiotic under FCCD (P. aeruginosa IMI-2016; Pseudomonas aeruginosa): 33 times; zone of bacterial growth inhibition around disc (in words) (P. Aeruginosa strains; FCCD-free medium): no zone of bacterial growth inhibition; zone of bacterial growth inhibition around disc (in words) (P. Aeruginosa strains; medium with (0.005-0.01)% FCCD): zone of bacterial growth inhibition appears
4 | CC1(C)S[C@@H]2[C@H](NC(=O)[C@H](N)c3ccc(O)cc3)C(=O)N2[C@H]1C(=O)O [amoxicillin] |  |  |  |  |  |  |  |  |  | sensitivity of bacteria to antibiotic disc (in words) (P. Aeruginosa strains): did not appear sensitive
5 | Polymyxin |  |  |  |  |  |  |  |  |  | MIC (P. aeruginosa IMI-2016; Control (without FCCD)): 250 µg/mL; increase of sensitivity to antibiotic under FCCD (P. aeruginosa IMI-2016; Pseudomonas aeruginosa): 16 times; MIC (P. aeruginosa IMI-2016; [10]): 31 µg/mL; MIC (P. aeruginosa IMI-2016; [11]): 125 µg/mL; MIC (A. baumannii IMI-2016; Control (without FCCD)): >500 µg/mL; MIC (A. baumannii IMI-2016; [10]): 31 µg/mL; MIC (A. baumannii IMI-2016; [11]): 62 µg/mL; zone of bacterial growth inhibition around disc (in words) (P. Aeruginosa strains; FCCD-free medium): no zone of bacterial growth inhibition; zone of bacterial growth inhibition around disc (in words) (P. Aeruginosa strains; medium with (0.005-0.01)% FCCD): zone of bacterial growth inhibition appears; MIC (K. pneumoniae IMI-2016; Control (without FCCD)): >500 µg/mL; MIC (K. pneumoniae IMI-2016; [12]): 62 µg/mL; MIC (K. pneumoniae IMI-2016; [13]): 125 µg/mL
6 | Cc1nnc(SCC2=C(C(=O)O)N3C(=O)[C@@H](NC(=O)Cn4cnnn4)[C@H]3SC2)s1 [cefazolin] |  |  |  |  |  |  |  |  |  | sensitivity of bacteria to antibiotic disc (in words) (P. Aeruginosa strains): did not appear sensitive
7 | C[C@H]1COc2c(N3CCN(C)CC3)c(F)cc3c(=O)c(C(=O)O)cn1c23 [Levofloxacin] | > 500 | 125 | 250 | > 500 | 125 | 62 | > 500 | 125 | 250 | 
